Test results published in patent publication US10369134B2, “Nonracemic mixtures and uses thereof” (Sunovion Pharmaceuticals Inc., priority 2017, dated 2019).

Assays:
Assay type in all cases: in vivo
freely moving rats = experiment: Sleep study of 85:15 (R:S-amisulpride) and racemic amisulpride (EEG/EMG); conditions: rat, p.o., R-amisulpride content of the total dose
Experimental: Groups in this study were as follows. Test compound was administered to rats in a cross-over design.
Vehicle or fixed ratio amisulpride dosing solutions were orally administered 10 min before the beginning of light phase (light phase: 10:00 AM to 10:00 PM). The individual dosing volume was 4 mL/kg. The individual dosing volume was calculated based on the animals' body weight measured on each experimental day. At least 1-week wash-out period after each treatment was provided.
The R-amisulpride and S-amisulpride were separately weighed. […]
A radio transmitter was implanted intraperitoneally in each anesthetized animal (sodium pentobarbital, 32.4 mg/kg, i.p. and medetomidine hydrochloride, 0.5 mg/kg, i.p.). […] Electromyograms (EMG) were recorded from the dorsal neck muscle. […] EEG/EMG was recorded in the home cages in a soundproof box using Dataquest A.R.T. software (Data Science International, New Brighton, Minn., USA) at a sampling rate of 500 Hz. […]
All data were expressed as a mean±SEM. Difference between 85/15 and 50/50 amisulpride at each dose in each sleep architecture (i.e. REM sleep duration, NREM sleep duration, and WAKE duration) during the first 4 hours after administration were assessed by a repeated measures one-way ANOVA, followed by post-hoc Bonferroni multiple comparison test. […]

healthy subjects = experiment: REM suppression polysomnography (PSG) study of (R)-amisulpride; conditions: human; for decrease in the time spent in REM sleep / reduction of the portion of the night spent in REM: range is 90% confidence interval
Experimental: REM suppression was the biomarker used to determine clinically-significant levels of 5-HT7 antagonism and its pharmacodynamics. REM suppression was assessed by total time in minutes spent in REM sleep and by the latency in minutes to REM sleep. […] REM suppression in human volunteers is an established translational biomarker useful to identify doses for antidepressant effects in patients.
The primary endpoint was REM sleep suppression as determined at post dose time points in the measures of latency to REM sleep, REM sleep time in minutes, and percent decrease in REM sleep time relative to total sleep time.
The results presented in Tables 6A-6C were determined from an analysis of the date based on a linear mixed model with terms for treatment, period, and treatment sequence as fixed effects, respective baseline PSG value as a continuous covariate, and treatment-by-baseline PSG interaction, and subject nested within sequence as a random effect, the Kenward and Roger correction for the degrees of freedom and an unstructured covariance structure to model the intrasubject correlation. The abbreviations used in Tables 6A-6C are as follows: PSG=polysomnography; CI=confidence interval; LS=least-squares; REM=rapid eye movement; SE=standard error.

rat = experiment: Forced Swim test; conditions: 0.5 mg/kg i.p. at 24, 5 and 1 h before swim test, mean ± SE, vehicle 168±12
Experimental: The Forced Swim test (FST) is an indicator of the antidepressant-like activity of a test compound. The rat will swim before “giving up” and becoming immobile. A compound with antidepressant-like activity will decrease the time the rat is immobile.
The animals (n=90) were divided into five groups. […] In the training session, each animal was gently placed into the plastic cylinder containing 5.8 L of water set at 25±1° C. Fifteen minutes after the beginning of the training session, the animal was removed from the water. The dosing solutions were administered 15 minutes after finishing of the training.
The swim test was performed for 5 minutes in the same manner as the training session. In the swim test, the behavior of each animal was horizontally recorded using a video camera. After the swim test, animals were immediately sacrificed by inhalation of carbon dioxide.
The swim movies were handled in a blind manner to ensure that the person who measured the immobility time had no information on the treatment. An animal was judged to be immobile whenever it remained floating in the water without moving its body or forepaws except for the slight movement to maintain its posture. The total time for which the animal remained immobile was defined as the immobility time. An observer blinded to the doses measured the immobility times. The immobility time of each animal was measured to one decimal place and rounded to a whole number. Immobility time was expressed in units of seconds. In each series the means of immobility time were calculated and rounded to a whole number using. The mean and standard error (SE) for each group were calculated using the data obtained from three experimental series and rounded to a whole number. All results are represented as the mean±SE.
The data of imipramine were analyzed using t-test with a two-sided significance level of 5% (p<0.05).

CCN1CCC[C@@H]1CNC(=O)c1cc(S(=O)(=O)CC)c(N)cc1OC [(R)-amisulpride, R-4-Amino-N-[(1-ethyl-2-pyrrolidinyl)methyl]-5-(ethylsulfonyl)-2-methoxybenzamide]
dose of R-amisulpride at which REM sleep suppression was saturated (freely moving rats): ≥ 50 mg/kg | decrease in REM sleep (healthy subjects; 340 mg (FIG. 15C)): about 20 minutes | decrease in REM sleep (healthy subjects; 600 mg (FIG. 15C)): about 30 minutes | subjects who reported adverse events (healthy subjects; of the 13 subjects dosed with 600 mg): 3 subjects | suppression of REM sleep (healthy subjects; single dose 600 mg): clinically meaningful and statistically significant suppression of REM sleep | vital signs and ECGs (healthy subjects; single oral dose): normal | Latency to REM Sleep, LS Mean Difference (SE) from placebo (healthy subjects; single oral dose 340 mg, n=20): 28.23 (9.82) Minutes | REM Percent, LS Mean Difference (SE) from placebo (healthy subjects; single oral dose 340 mg, n=20): −4.15 (1.09) % | REM Time, LS Mean Difference (SE) from placebo (healthy subjects; single oral dose 340 mg, n=20): −18.45 (4.91) Minutes | REM Percent, LS Mean (SE) (healthy subjects; single oral dose 340 mg, n=20, placebo 25.69 (0.92)): 21.55 (0.92) % | Latency to REM Sleep, LS Mean (SE) (healthy subjects; single oral dose 340 mg, n=20, placebo 77.03 (9.42)): 105.25 (9.42) Minutes | REM Time, LS Mean (SE) (healthy subjects; single oral dose 340 mg, n=20, placebo 110.05 (4.69)): 91.60 (4.69) Minutes | decrease in the time spent in REM sleep (healthy subjects; single oral dose 340 mg): 10 to 27 min | reduction of the portion of the night spent in REM (healthy subjects; single oral dose 340 mg): 2-6 percentage points | Latency to REM Sleep, LS Mean Difference (SE) from placebo (healthy subjects; single oral dose 600 mg, n=13): 20.30 (9.39) Minutes | REM Percent, LS Mean Difference (SE) from placebo (healthy subjects; single oral dose 600 mg, n=13): −6.24 (1.45) % | REM Time, LS Mean Difference (SE) from placebo (healthy subjects; single oral dose 600 mg, n=13): −31.39 (7.99) Minutes | REM Percent, LS Mean (SE) (healthy subjects; single oral dose 600 mg, n=13, placebo 24.30 (1.14)): 18.06 (1.14) % | Latency to REM Sleep, LS Mean (SE) (healthy subjects; single oral dose 600 mg, n=13, placebo 89.06 (7.71)): 109.35 (7.71) Minutes | REM Time, LS Mean (SE) (healthy subjects; single oral dose 600 mg, n=13, placebo 107.98 (5.65)): 76.59 (5.65) Minutes | decrease in the time spent in REM sleep (healthy subjects; single oral dose 600 mg): 18 to 45 min | reduction of the portion of the night spent in REM (healthy subjects; single oral dose 600 mg): 4-9 percentage points | tolerability (healthy subjects; single oral dose 340 or 600 mg): well tolerated | immobility time (rat): 124 ± 12 s
